In US20140023611A1 (priority 2010, published 2014):

How the values were obtained:
rat NaP2b (SLC34A2) = target: T1, rat NaP2b (SLC34A2) (Rattus norvegicus, UniProt Q9JJ09); test: Inhibition of NaP2b-mediated Pi (33P) uptake in transfected HEK293 cells, rat NaP2b; format: cell-based; conditions: 33P Pi uptake, 0.1 mM phosphate, value given as pIC50 range
T1 construct: host or cells: HEK293
T1 sequence (Q9JJ09 1-695): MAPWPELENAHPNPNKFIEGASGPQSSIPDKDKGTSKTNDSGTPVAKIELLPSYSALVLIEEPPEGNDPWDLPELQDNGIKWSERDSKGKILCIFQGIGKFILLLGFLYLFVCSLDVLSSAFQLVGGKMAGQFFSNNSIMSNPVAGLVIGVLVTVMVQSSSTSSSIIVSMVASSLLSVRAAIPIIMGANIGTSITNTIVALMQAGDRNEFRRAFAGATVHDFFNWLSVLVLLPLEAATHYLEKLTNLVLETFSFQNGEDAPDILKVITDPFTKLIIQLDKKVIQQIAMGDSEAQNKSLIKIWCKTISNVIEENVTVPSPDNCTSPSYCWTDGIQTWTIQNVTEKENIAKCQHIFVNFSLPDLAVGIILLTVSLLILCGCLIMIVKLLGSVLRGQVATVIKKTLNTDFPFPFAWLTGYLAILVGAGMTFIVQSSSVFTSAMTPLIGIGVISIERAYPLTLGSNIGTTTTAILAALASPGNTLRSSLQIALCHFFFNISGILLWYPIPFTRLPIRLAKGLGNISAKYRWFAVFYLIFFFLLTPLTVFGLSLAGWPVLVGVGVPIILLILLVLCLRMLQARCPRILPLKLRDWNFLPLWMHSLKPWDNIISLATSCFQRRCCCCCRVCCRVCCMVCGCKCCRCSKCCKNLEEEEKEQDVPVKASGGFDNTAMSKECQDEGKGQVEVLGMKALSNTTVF
Outline: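 HEK293 cells were transiently transfected with NaP2b cDNA using Lipofectamine and grown near confluence. Compounds were tested at twelve concentrations from 0.1 nM to 30 uM in duplicate, and 33P-phosphate uptake was counted by scintillation after lysis. Results are expressed as pIC50.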

human NaP2b (SLC34A2) = target: T2, human NaP2b (SLC34A2) (Homo sapiens, UniProt O95436); test: Inhibition of NaP2b-mediated Pi (33P) uptake in transfected HEK293 cells, human NaP2b; format: cell-based; conditions: read-out: pIC50 range for human NaP2b (converted)
T2 construct: host or cells: HEK293
T2 sequence (O95436 1-690): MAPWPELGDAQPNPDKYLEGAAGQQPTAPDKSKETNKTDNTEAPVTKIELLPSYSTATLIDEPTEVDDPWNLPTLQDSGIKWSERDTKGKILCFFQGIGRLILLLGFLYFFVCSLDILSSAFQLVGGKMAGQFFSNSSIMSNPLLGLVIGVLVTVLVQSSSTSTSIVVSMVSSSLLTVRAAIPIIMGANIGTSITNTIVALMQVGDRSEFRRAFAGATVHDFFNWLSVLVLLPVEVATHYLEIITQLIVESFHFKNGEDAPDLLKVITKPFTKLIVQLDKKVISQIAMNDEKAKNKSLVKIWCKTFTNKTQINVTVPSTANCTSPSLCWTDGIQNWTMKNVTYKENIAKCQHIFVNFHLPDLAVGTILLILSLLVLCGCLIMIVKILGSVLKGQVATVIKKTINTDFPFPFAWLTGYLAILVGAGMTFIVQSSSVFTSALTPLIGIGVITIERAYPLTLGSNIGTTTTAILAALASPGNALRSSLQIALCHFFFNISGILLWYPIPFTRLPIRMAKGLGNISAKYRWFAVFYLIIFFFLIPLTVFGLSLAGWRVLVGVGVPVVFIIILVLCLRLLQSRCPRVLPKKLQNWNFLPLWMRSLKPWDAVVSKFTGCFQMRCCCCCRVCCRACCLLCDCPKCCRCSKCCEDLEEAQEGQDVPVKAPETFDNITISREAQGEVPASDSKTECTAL
Outline: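 HEK293 cells transiently transfected with human NaP2b (Thr inserted after residue 37, N39D), endogenous PiT transport pharmacologically silenced. Sodium or choline buffer, pH 7.4, with 100 uM KH2PO4, 33P orthophosphate and compound (0.1 nM–30 uM, twelve concentrations, duplicate). 3-30 min at room temperature, scintillation counting, pIC50 derived.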

SMILES | IC50 (rat NaP2b (SLC34A2)) [nM] | IC50 (human NaP2b (SLC34A2)) [nM]
CN(CCN1CCN(C(=O)N(C)CCOCCOCCOCCC(=O)OC(C)(C)C)CC1)C(=O)c1cccc(C(=O)Nc2ccc(N3CCCCC3)cc2-c2cc(C(=O)N[C@H]3CCCc4ccccc43)ccn2)c1 [Example 229, tert-butyl 3-[2-(2-{2-[methyl(4-{2-[N-methyl-1-(3-{[4-(piperidin-1-yl)-2-(4-{[(1S)-1,2,3,4-tetrahydronaphthalen-1-yl]carbamoyl}pyridin-2-yl)phenyl]carbamoyl}phenyl)formamido]ethyl}piperazin-1-yl)carbonylamino]ethoxy}ethoxy)ethoxy]propanoate] | < 1000 | < 1000
CCN(CC)c1ccc(NC(=O)c2cccc(C(=O)N(C)CCN3CCN(C(=O)OCCOCCOCCOCCOCCOCCOCCOC)CC3)c2)c(-c2cc(C(=O)N[C@H]3CCCc4ccccc43)ccn2)c1 [Example 230, (S)-2,5,8,11,14,17,20-heptaoxadocosan-22-yl 4-(2-(3-(4-(diethylamino)-2-(4-(1,2,3,4-tetrahydronaphthalen-1-ylcarbamoyl)pyridin-2-yl)phenylcarbamoyl)-N-methylbenzamido)ethyl)piperazine-1-carboxylate] | 1000 to 7940 | 1000 to 7940
CCN(CC)c1ccc(NC(=O)c2cccc(C(=O)N(C)CCN3CCN(C(=O)N(C)CCOCCOCCOCCC(=O)N4CCN(CCOCCO)CC4)CC3)c2)c(-c2cc(C(=O)N[C@H]3CCCc4ccccc43)ccn2)c1 [Example 231, 3-N-[4-(diethylamino)-2-(4-{[(1S)-1,2,3,4-tetrahydronaphthalen-1-yl]carbamoyl}pyridin-2-yl)phenyl]-1-N-(2-{4-[(2-{2-[2-(3-{4-[2-(2-hydroxyethoxy)ethyl]piperazin-1-yl}-3-oxopropoxy)ethoxy]ethoxy}ethyl)(methyl)carbamoyl]piperazin-1-yl}ethyl)-1-N-methylbenzene-1,3-dicarboxamide] | 10000 to 31600 | 10000 to 31600
CN(CCOCCOCCOCCC(=O)N1CCN(CCOCCO)CC1)C(=O)Cc1cccc(SCc2cccc(C(=O)Nc3ccc(N4CCCCC4)cc3-c3cc(C(=O)N[C@H]4CCCc5ccccc54)ccn3)c2)c1 [Example 236, (S)-2-(2-(3-((3-(15-(4-(2-(2-hydroxyethoxy)ethyl)piperazin-1-yl)-3-methyl-21-2.15-dioxo-6,9,12-trioxa-3-azapentadecyl)phenylthio)methyl)benzamido)-5-(piperidin-1-yl)phenyl)-N-(1,2,3,4-tetrahydronaphthalen-1-yl)isonicotinamide] | < 1000 | < 1000
CN(CCN1CCOC[C@H]1C(=O)N(C)CCOCCOCCOCCC(=O)OC(C)(C)C)C(=O)c1cccc(C(=O)Nc2ccc(N3CCCCC3)cc2-c2cc(C(=O)N[C@H]3CCCc4ccccc43)ccn2)c1 [Example 242, tert-butyl 2-methyl-1-((S)-4-(2-(N-methyl-3-(4-(piperidin-1-yl)-2-(4-((S)-1,2,3,4-tetrahydronaphthalen-1-ylcarbamoyl)pyridin-2-yl)phenylcarbamoyl)benzamido)ethyl)morpholin-3-yl)-1-oxo-5,8,11-trioxa-2-azatetradecan-14-oate] | < 1000 | < 1000
CN(CCN1CCOC[C@H]1C(=O)N(C)CCOCCOCCOCCC(=O)O)C(=O)c1cccc(C(=O)Nc2ccc(N3CCCCC3)cc2-c2cc(C(=O)N[C@H]3CCCc4ccccc43)ccn2)c1 [Example 243, 2-methyl-1-((S)-4-(2-(N-methyl-3-(4-(piperidin-1-yl)-2-(4-((S)-1,2,3,4-tetrahydronaphthalen-1-ylcarbamoyl)pyridin-2-yl)phenylcarbamoyl)benzamido)ethyl)morpholin-3-yl)-1-oxo-5,8,11-trioxa-2-azatetradecan-14-oic acid] | 10000 to 31600 | 10000 to 31600
CN(CCN1CCC(C(=O)OC(C)(C)C)CC1)C(=O)c1cccc(C(=O)Nc2ccc(N3CCCCC3)cc2-c2cc(C(=O)N[C@H]3CCCc4ccccc43)ccn2)c1 [Example 244, (S)-tert-butyl 1-(2-(N-methyl-3-(4-(piperidin-1-yl)-2-(4-(1,2,3,4-tetrahydronaphthalen-1-ylcarbamoyl)pyridin-2-yl)phenylcarbamoyl)benzamido)ethyl)piperidine-4-carboxylate] | 1000 to 7940 | 1000 to 7940
O=C(O)CCOCCOCCOCCOCCCc1cccc(SCc2cccc(C(=O)Nc3ccc(N4CCCCC4)cc3-c3cc(C(=O)N[C@H]4CCCc5ccccc54)ccn3)c2)c1 [Example 247, 3-(2-(2-(2-(3-(3-((30S)-3-((2-(4-(((S)-1,2,3,4-tetrahydronaphthalen-1-yl)carbamoyl)pyridin-2-yl)-4-(piperidin-1-yl)phenyl)carbamoyl)benzylthio)phenyl)propoxy)ethoxy)ethoxy)ethoxy)propanoic acid] | 1000 to 7940 | 1000 to 7940
CCN(CC)c1ccc(NC(=O)c2cccc(CCCOCCOCCOCCOCCC(=O)N3CCC[C@H](C(=O)N(C)CCOCCOCCOCCOCCOCCOCCOC)C3)c2)c(-c2cc(C(=O)NCc3cccc(C(F)(F)F)c3)ccn2)c1 [Example 257, (S)-2-(2-(3-(16-(3-(2,5,8,11,14,17,20-heptaoxadocosan-22-yl(methyl)carbamoyl)piperidin-1-yl)-16-oxo-4,7,10,13-tetraoxahexadecyl)benzamido)-5-(diethylamino)phenyl)-N-(3-(trifluoromethyl)benzyl)isonicotinamide] | 1000 to 7940 | < 1000
CCN(CC)c1ccc(NC(=O)c2cccc(CCCOCCOCCOCCOCCC(=O)N3CCN(c4ccc(OCCOCCOCCOC)cc4)CC3)c2)c(-c2cc(C(=O)NCc3cccc(C(F)(F)F)c3)ccn2)c1 [Example 263, 2-(5-(diethylamino)-2-(3-(16-(4-(4-(2-(2-(2-methoxyethoxy)ethoxy)ethoxy)phenyl)piperazin-1-yl)-16-oxo-4,7,10,13-tetraoxahexadecyl)benzamido)phenyl)-N-(3-(trifluoromethyl)benzyl)isonicotinamide] | 1000 to 7940 | < 1000
CCN(CC)c1ccc(NC(=O)c2cccc(C#CCOCCOCCOCCOCCO)c2)c(-c2cc(C(=O)NCc3cccc(C(F)(F)F)c3)ccn2)c1 [Example 266, 2-(5-(diethylamino)-2-(3-(1-hydroxy-3,6,9,12-tetraoxapentadec-14-yn-15-yl)benzamido)phenyl)-N-(3-(trifluoromethyl)benzyl)isonicotinamide] | 1000 to 7940 | 1000 to 7940
CCN(CC)c1ccc(NC(=O)c2cccc(CCCOCCOCCOCCOCCO)c2)c(-c2cc(C(=O)NCc3cccc(C(F)(F)F)c3)ccn2)c1 [Example 267, 2-(5-(diethylamino)-2-(3-(1-hydroxy-3,6,9,12-tetraoxapentadecan-15-yl)benzamido)phenyl)-N-(3-(trifluoromethyl)benzyl)isonicotinamide] | < 1000 | < 1000
CCN(CC)c1ccc(NC(=O)c2cccc(C#CCOCCOCCOCCOCCOCCOCCOCCOCCOC)c2)c(-c2cc(C(=O)NCc3cccc(C(F)(F)F)c3)ccn2)c1 [Example 268, 2-(2-(3-(2,5,8,11,14,17,20,23,26-nonaoxanonacos-28-yn-29-yl)benzamido)-5-(diethylamino)phenyl)-N-(3-(trifluoromethyl)benzyl)isonicotinamide] | < 1000 | < 1000
CCN(CC)c1ccc(NC(=O)c2cccc(CCCOCCOCCOCCOCCNC(=O)N(C)CCOCCOCCOCCOCCOCCOCCOC)c2)c(-c2cc(C(=O)NCc3cccc(C(F)(F)F)c3)ccn2)c1 [Example 273, 2-(5-(diethylamino)-2-(3-(23-methyl-24-oxo-2,5,8,11,14,17,20,28,31,34,37-undecaoxa-23,25-diazatetracontan-40-yl)benzamido)phenyl)-N-(3-(trifluoromethyl)benzyl)isonicotinamide] | 1000 to 7940 | 1000 to 7940
